Measurements reported in patent publication US9441012B2, “Fluorinated epoxyketone-based compounds and uses thereof as proteasome inhibitors” (FLUORINOV PHARMA INC., priority 2012, dated 2016).

Columns and labels:
Assay in all cases: NCI 60 human tumor cell line screen (SRB)
Format in all cases: cell-based
LOX IMVI = LOX IMVI (Melanoma); 48 h
Excerpt: (§1) Representative compounds of Formula I were screened using the National Cancer Institute (NCI) screening panel, which consists of a panel of 60 different human tumor cell lines, representing leukemia [CCRF-CEM, HL-60 (TB), K-562, MOLT-4, SR], melanoma [LOX IMVI, MALME-3M, M14, SMDA-MB-435, SK-MEL-2, SK-MEL-28, SK-MEL-5, UACC-257 and UACC-62] and cancers of the lung [A549/ATCC, EKVX, HOP-62, HOP-93, NCI-H226, NCI-H23, NCI-H322M, NCI-H460], colon [COLO 205, HCT-116, HCT-15, HT29, KM12, SW-620], brain [SF-268, SF-295, SF-539, SNB-19, SNB-75, U251], ovary [IGROV1, OVCAR-3, OVCAR-4, OVCAR-5, OVCAR-8, NCI/ADR-RES, SK-OV-3], breast [MCF7, MDA-MB-231, BT-549, T-47D, MDA-MB-468], prostate [PC-3, DU-145], and renal[786-0, A498, ACHN, CAKI-1, RXF-393, SN12C, TK-10, UO-31] cancers.
(§2) After 24 h, two plates of each cell line are fixed in situ with TCA, to represent a measurement of the cell population for each cell line at the time of drug addition (Tz). Experimental drugs are solubilised in dimethyl sulfoxide at 400-fold the desired final maximum test concentration and stored frozen prior to use. At the time of drug addition, an aliquot of frozen concentrate is thawed and diluted to twice the desired final maximum test concentration with complete medium containing 50 μg/ml gentamicin. Additional four, 10-fold or ½ log serial dilutions are made to provide a total of five drug concentrations plus control. Aliquots of 100 μl of these different drug dilutions are added to the appropriate microtiter wells already containing 100 μl of medium, resulting in the required final drug concentrations.
(§3) Following drug addition, the plates are incubated for an additional 48 h at 37° C., 5% CO2, 95% air, and 100% relative humidity. For adherent cells, the assay is terminated by the addition of cold TCA (trichloroacetic acid). Cells are fixed in situ by the gentle addition of 50 μl of cold 50% (w/v) TCA (final concentration, 10% TCA) and incubated for 60 minutes at 4° C. The supernatant is discarded, and the plates are washed five times with tap water and air dried. Sulforhodamine B (SRB) solution (100 μl) at 0.4% (w/v) in 1% acetic acid is added to each well, and plates are incubated for 10 minutes at room temperature. After staining, unbound dye is removed by washing five times with 1% acetic acid and the plates are air dried. Bound stain is subsequently solubilised with 10 mM trizma base, and the absorbance is read on an automated plate reader at a wavelength of 515 nm. For suspension cells, the methodology is the same except that the assay is terminated by fixing settled cells at the bottom of the wells by gently adding 50 μl of 80% TCA (final concentration, 16% TCA). Using the seven absorbance measurements [time zero, (Tz), control growth, (C), and test growth in the presence of drug at the five concentration levels (Ti)], the percentage growth is calculated at each of the drug concentration levels. Percentage growth inhibition is calculated as: [(Ti−Tz)/(C−Tz)]×100 for concentrations in which Ti>/=Tz and [(Ti−Tz)/Tz]×100 for concentrations in which Ti<Tz.
(§4) Three dose response parameters are calculated for each experimental agent. Growth inhibition of 50% (GI50) is calculated from [(Ti−Tz)/(C−Tz)]100=50, which is the drug concentration resulting in a 50% reduction in the net protein increase (as measured by SRB staining) in control cells during the drug incubation. The drug concentration resulting in total growth inhibition (TGI) is calculated from Ti=Tz. The LC50 (concentration of drug resulting in a 50% reduction in the measured protein at the end of the drug treatment as compared to that at the beginning) indicating a net loss of cells following treatment is calculated from [(Ti−Tz)/Tz]×100=−50. Values are calculated for each of these three parameters if the level of activity is reached. However, if the effect is not reached or is exceeded, the value for that parameter is expressed as greater or less than the maximum or minimum concentration tested.

SNB-75 = SNB-75 (CNS Cancer); 48 h
Excerpt: as §1, §2, §3, §4

A549/ATCC = A549/ATCC (Non-Small Cell Lung Cancer); 48 h
Excerpt: as §1, §2, §3, §4

OVCAR-5 = OVCAR-5 (Ovarian Cancer); 48 h
Excerpt: as §1, §2, §3, §4

SK-MEL-28 = SK-MEL-28 (Melanoma); 48 h
Excerpt: as §1, §2, §3, §4

IGROV1 = IGROV1 (Ovarian Cancer); 48 h
Excerpt: as §1, §2, §3, §4

ACHN = ACHN (Renal Cancer); 48 h
Excerpt: as §1, §2, §3, §4

NCI-H23 = NCI-H23 (Non-Small Cell Lung Cancer); 48 h
Excerpt: as §1, §2, §3, §4

HOP-92 = HOP-92 (Non-Small Cell Lung Cancer); 48 h
Excerpt: as §1, §2, §3, §4

SK-OV-3 = SK-OV-3 (Ovarian Cancer); 48 h
Excerpt: as §1, §2, §3, §4

RPMI-8226 = RPMI-8226 (Leukemia); 48 h
Excerpt: as §1, §2, §3, §4

M14 = M14 (Melanoma); 48 h
Excerpt: as §1, §2, §3, §4

SMILES | Log10GI50 (LOX IMVI) | Log10LC50 (LOX IMVI) | Log10TGI50 (LOX IMVI) | Log10GI50 (SNB-75) | Log10LC50 (SNB-75) | Log10TGI50 (SNB-75) | Log10GI50 (A549/ATCC) | Log10LC50 (A549/ATCC) | Log10TGI50 (A549/ATCC) | Log10GI50 (OVCAR-5) | Log10LC50 (OVCAR-5) | Log10TGI50 (OVCAR-5) | Log10GI50 (SK-MEL-28) | Log10LC50 (SK-MEL-28) | Log10TGI50 (SK-MEL-28) | Log10GI50 (ACHN) | Log10LC50 (ACHN) | Log10TGI50 (ACHN) | Log10GI50 (NCI-H23) | Log10LC50 (NCI-H23) | also measured
CC(C)C[C@H](NC(=O)[C@H](Cc1ccccc1)NC(=O)[C@H](COC(F)F)NC(=O)CN1CCOCC1)C(=O)[C@@]1(C)CO1 [Example 25, (2S)-2-[[(2S)-3-(difluoromethoxy)-2-[(2-morpholinoacetyl)amino]propanoyl]amino]-N-[(1S)-3-methyl-1-[(2R)-2-methyloxirane-2-carbonyl]butyl]-3-phenyl-propanamide] | −7.73 | −7.10 | −7.42 | −7.71 | −6.35 | −7.24 | −7.41 | >−4.00 | −6.13 | −7.36 | >−4.00 | −6.44 | −7.38 | −4.82 | −6.69 | −7.01 | >−4.00 | >−4.00 | −7.62 | −5.64 | Log10GI50 (IGROV1): −7.43; Log10LC50 (IGROV1): >−4.00; Log10TGI50 (IGROV1): −6.38; Log10TGI50 (NCI-H23): −7.13; Log10GI50 (HOP-92): −7.65; Log10LC50 (HOP-92): −6.35; Log10TGI50 (HOP-92): −7.16; Log10GI50 (SK-OV-3): −7.30; Log10TGI50 (SK-OV-3): −6.60; Log10GI50 (RPMI-8226): −7.52; Log10LC50 (RPMI-8226): >−4.00; Log10TGI50 (RPMI-8226): −7.04; Log10GI50 (M14): −7.48; Log10LC50 (M14): >−4.00; Log10TGI50 (M14): −6.71
Cc1ncc(C(=O)N[C@@H](COC(F)F)C(=O)N[C@@H](COC(F)F)C(=O)N[C@@H](Cc2ccccc2)C(=O)[C@@]2(C)CO2)s1 [Example 1, 2-methyl-thiazole-5-carboxylic acid ((S)-1-{(S)-1-[(S)-1-benzyl-2-((R)-2-methyloxiranyl)-2-oxo-ethylcarbamoyl]-2-difluoromethoxyethylcarbamoyl}-2-difluoromethoxyethyl)-amide] | −6.96 | −6.16 | −6.56 | −6.81 | >−4.00 | −6.24 | −6.41 | >−4.00 | >−4.00 | −6.18 | −4.17 | −5.30 | −6.85 | −4.69 | −6.12 | −6.53 | >−4.00 | −4.81 | −6.85 | −5.27 | Log10TGI50 (NCI-H23): −5.92; Log10GI50 (HOP-92): −6.23; Log10LC50 (HOP-92): −4.39; Log10TGI50 (HOP-92): −5.40; Log10GI50 (SK-OV-3): −6.06; Log10LC50 (SK-OV-3): >−4.00; Log10TGI50 (SK-OV-3): >−4.00; Log10GI50 (RPMI-8226): −7.40; Log10LC50 (RPMI-8226): >−4.00; Log10TGI50 (RPMI-8226): −4.86; Log10GI50 (M14): −6.86; Log10LC50 (M14): −4.35; Log10TGI50 (M14): −6.24
C[C@]1(C(=O)[C@H](Cc2ccccc2)NC(=O)[C@H](COC(F)F)NC(=O)[C@H](COC(F)F)NC(=O)CN2CCOCC2)CO1 [Example 26, (S)-N-{(S)-1-[(S)-1-Benzyl-2-((R)-2-methyl-oxiranyl)-2-oxo-ethylcarbamoyl]-2-difluoromethoxyethyl}-3-difluoromethoxy-2-(2-morpholin-4-yl-acetylamino)-propio-namide] | −7.73 | −7.10 | −7.42 | −7.71 | −6.35 | −7.24 | −7.41 | >−4.00 | −6.13 | −7.36 | >−4.00 | −6.44 | −7.38 | −4.82 | −6.69 | −7.01 | >−4.00 | >−4.00 | −7.62 | −5.64 | Log10GI50 (IGROV1): −7.43; Log10LC50 (IGROV1): >−4.00; Log10TGI50 (NCI-H23): −7.13; Log10GI50 (HOP-92): −7.65; Log10LC50 (HOP-92): −6.35; Log10TGI50 (HOP-92): −7.16; Log10GI50 (SK-OV-3): −7.30; Log10TGI50 (SK-OV-3): −6.60; Log10GI50 (RPMI-8226): −7.52; Log10LC50 (RPMI-8226): >−4.00; Log10TGI50 (RPMI-8226): −7.04; Log10GI50 (M14): −7.48; Log10LC50 (M14): >−4.00; Log10TGI50 (M14): −6.71
C[C@]1(C(=O)[C@H](Cc2ccccc2)NC(=O)[C@H](Cc2ccccc2)NC(=O)[C@H](COC(F)F)NC(=O)CN2CCOCC2)CO1 [Example 29] | −7.50 | −6.35 | −6.90 | −6.83 | −5.96 | −6.41 | −6.68 | >−4.00 | >−4.00 | −6.65 | >−4.00 | −5.58 | −7.13 | >−4.00 | −6.34 | −6.59 | >−4.00 | >−4.00 | −7.21 | >−4.00 | Log10GI50 (IGROV1): −6.67; Log10LC50 (IGROV1): >−4.00; Log10TGI50 (IGROV1): >−4.00; Log10TGI50 (NCI-H23): −5.55; Log10GI50 (HOP-92): −7.18; Log10LC50 (HOP-92): −6.03; Log10TGI50 (HOP-92): −6.55; Log10GI50 (SK-OV-3): −6.46; Log10LC50 (SK-OV-3): >−4.00; Log10TGI50 (SK-OV-3): −5.78; Log10GI50 (RPMI-8226): −7.40; Log10LC50 (RPMI-8226): >−4.00; Log10TGI50 (RPMI-8226): −6.43; Log10GI50 (M14): −7.21; Log10LC50 (M14): >−4.00; Log10TGI50 (M14): −5.85
